# Reference: patent publication US20220095648A1, “USE OF A THRAUSTOCHYTRID BIOMASS FOR MAINTAINING GUT BARRIER FUNCTION” (priority 2019, published 2022)
# What was measured:
# Ross 308 broilers [1] = assay: Colon length and colon mucosa aspect in DSS-treated broiler chickens; assay type: in vivo; conditions: DSS in drinking water, control diet
# From the text: (§1) Material and Methods: • Experimental animals: Day-of-hatch male Ross 308 broilers were obtained from a local hatchery, placed in floor pens until 6 days of age, and provided heat to maintain an age-appropriate temperature. Chicks were provided ad libitum access to water and the balanced experimental diets meeting the poultry nutrition requirements recommended for Ross 308 broilers during the starter period from 1 to 16 days of age. • Experimental diets: A basal starter diet (CON) in the form of short pellets was formulated based on wheat, corn, and soybean meal (Table 14). The other experimental diets were formulated to contain 5% microalgae Aurantiochytrium mangrovei (MAG-5) or 2% curcumin (CUM-2) by replacing part of the cereal, protein or oil content. […]
# (§2) • Dextran Sulfate Sodium (DSS) administration: DSS was used to increase intestinal permeability in broilers, by inducing epithelium damage. […] Fluorescence levels of diluted plasma (1:4 in saline solution 0.9% NaCl) were measured at an excitation wavelength of 485 nm and emission wavelength of 528 nm (BIOTEK synergie H1), and FITC-dextran concentration per mL of plasma was calculated based on a standard curve. • At the time of euthanisa, the colon was collected for morphometry. […] The colon (from the ileocecal junction to the cloaca) was then excised and its length was measured.
# Ross 308 broilers [2] = assay: Gut permeability: FITC-dextran in plasma of DSS-treated broiler chickens; assay type: in vivo; conditions: DSS administration, control diet; blood 1 h after oral gavage
# From the text: as §1, §2
# Caco-2 cells [3] = assay: TER of Caco-2 cells exposed to DON; assay type: cell-based
# Procedure: Caco-2 cells were used as a model of intestinal epithelial cells. Cells were routinely grown in culture media (DMEM) supplemented with 10% fetal calf serum and 1% antibiotics (streptomycin penicillin solution). Cells were grown in 75 cm^2 ventilated flasks maintained at 37° C. in a 5% CO2 incubator. Cells were routinely passaged using trypsin-EDTA solution. For the assay, cells were seeded onto 12-well inserts (Thincert, Greiner, pore size 0.4 μm) at an initial density of 200,000 cells/cm^2 and let to differentiate for 10-14 days post-seeding before being used, with medium changes every two days. Cell differentiation was confirmed by reading the TER, using a Volt/Ohm meter (Millipore), at the beginning of the experiment, when the TER value reached 600 Ohm/cm^2. […]
# After differentiation, Caco-2 cells were put in contact, during 48 or 72 h, with or without DON at different concentrations (0, 6.25, 12.5, 25, 50 or 100 μM), and with activated charcoal at 1% (w/v) as positive control, or with or without one of the microalgae preparation type at different concentrations (1, 5, or 20% v:v, final dilution), each added on the apical side. At the end of the incubation time, the TER was measured using a Volt/Ohm meter (Millipore), and results were expressed in percentages of the control put in contact with the same concentration of DON but not with the tested product (microalgae or charcoal). […]
# Caco-2 cells [4] = assay: D-glucose total and passive uptake by Caco-2 cells exposed to DON; assay type: cell-based; conditions: DON 10 μM alone
# From the text: (§3) In order to test the ability of microalgae to reduce/prevent the effect of DON on nutrient absorption through epithelial cells, Caco-2 cells were exposed to a metabolically active dose of DON, in the absence or presence of Aurantiochytrium mangrovei FCC1325 microalgae (lyophilized microalgae “ML”, or digested lyophilized microalgae “MLD”), at a dose of 1% or 5%. Two main types of nutrients were considered (i.e. glucose and amino acids—more particularly Methionine, Lysine and Threonine), and the following measurements were carried out: • For glucose (D-Glc): passive, active (regulated by the sodium-dependent SGLT-1 transporter) and total (active+passive) absorption • For amino acids (L-Methionine, L-Lysine and L-Threonine): passive, active (regulated by sodium-dependent transport) and total (active+passive) absorption
# (§4) Briefly, Caco-2 cells were cultured and seeded onto 12-well inserts, as described in Example 1, and then let to differentiate for 16-21 days post-seeding before being used, with medium changes every two days. When differentiated, Caco-2 cells were incubated or not with DON at 10 μM (apically added), in the absence or presence of 1 or 5% (v:v final dilution, apically added) of microalgae preparation (ML or MLD). Both ML and MLD powders were resuspended initially at 0.8 mg/ml in buffer (fresh culture medium of the microalgae). Caco-2 cells were incubated for 12, 24 or 48 hours before nutrient uptake was measured.
# (§5) At the end of the incubation period, inserts were washed twice with PBS++. Inserts were then washed twice with uptake buffer (Ringer Hepes buffer) with or without sodium. Uptake buffer composition was: • Ringer Hepes buffer with sodium (called “+Na+”): 137 mmol/L NaCl, 5.36 mmol/L KCl, 0.4 mmol/L Na2HPO4, 0.8 mmol/L MgCl2, 1.8 mmol/L CaCl2, 20 mmol/L N-2-hydroxyethylpiperazine-N-2-ethanesulfonic acid (HEPES), pH being adjusted to pH 7.4 with NaOH; or • Ringer Hepes buffer without sodium (called “—Na+”): 137 mmol/L Choline chloride (instead of sodium chloride), 5.36 mmol/L KCl, 0.4 mmol/L K2HPO4 (instead of Na2HPO4), 0.8 mmol/L MgCl2, 1.8 mmol/L CaCl2, 20 mmol/L N-2-hydroxyethylpiperazine-N-2-ethanesulfonic acid (HEPES), pH being adjusted to pH 7.4 with KOH.
# (§6) After an equilibration period of 15 min at 37° C., uptake assay was initiated by the addition of D-Glc, L-Lysine, L-Methionine or L-Threonine diluted in the appropriate Ringer Hepes buffer (400 μl) and added apically onto Caco-2 inserts (final concentration of 100 μM of D-Glc and 400 μM for amino-acids), the basolateral compartment being filled with 400 μl of buffer. Inserts were kept incubated at 37° C. during the uptake assay. After 15 minutes incubation, 30 μl of media were collected from apical or basolateral compartments and stored at −20° C. until nutrient quantification. Residual concentrations of D-Glc or L-amino acid present in the apical compartments were measured using enzyme-based quantification assay kits (Glucose Colorimetric/Fluorometric Assay Kit, Sigma-Aldrich).
# (§7) Uptakes were expressed as: • Total uptake: uptake measured (either measured residual apical concentration or calculated absorbed (intracellular+basolateral) concentration) in Ringer Hepes buffer with Na+corresponding to the activity of sodium-dependent and sodium-independent transporters; • Passive uptake: uptake measured in Ringer Hepes buffer without Na+corresponding to only passive/sodium-independent transporters; • Active uptake: uptake calculated by subtracting passive uptake to total uptake.
# [5] = test system: sodium-dependent SGLT-1 transporter; assay: SGLT-1 mediated (active) D-glucose uptake by Caco-2 cells exposed to DON; assay type: cell-based; conditions: DON 10 μM alone, total minus passive
# From the text: as §3
# as §4, with “Both ML and MLD powders were resuspended initially at 0.8 mg/ml in buffer (fresh culture medium of the microalgae).” left out, “measured. […]” for “measured.”
# as §6, with “Inserts were kept incubated at 37° C. during the uptake assay.” left out, “Sigma-Aldrich). […]” for “Sigma-Aldrich).”
# Caco-2 cells [6] = assay: L-Lysine uptake by Caco-2 cells exposed to DON; assay type: cell-based; conditions: for % of inhibition by DON, Passive uptake (−Na) / % of inhibition by DON, Total uptake (+Na) / % of inhibition by DON, Active transport: L-Lysine, DON 10 μM alone; for % of inhibition by DON, Active transport: total minus passive
# From the text: as §3, §4, §5, §6, §7
# Caco-2 cells [7] = assay: L-Methionine uptake by Caco-2 cells exposed to DON; assay type: cell-based; conditions: for % of inhibition by DON, Passive uptake (−Na) / % of inhibition by DON, Total uptake (+Na) / % of inhibition by DON, Active transport: L-Methionine, DON 10 μM alone; for % of inhibition by DON, Active transport: total minus passive
# From the text: as §3, §4, §5, §6, §7
# Caco-2 cells [8] = assay: L-Threonine uptake by Caco-2 cells exposed to DON; assay type: cell-based; conditions: DON 10 μM alone; for % of inhibition by DON, Active transport: total minus passive
# From the text: as §3, §4, §5, §6, §7
# Caco-2 cells [9] = assay: Nutrient uptake by Caco-2 cells exposed to DON (overall conclusion); assay type: cell-based; conditions: DON at 10 μM
# Procedure: In order to test the ability of microalgae to reduce/prevent the effect of DON on nutrient absorption through epithelial cells, Caco-2 cells were exposed to a metabolically active dose of DON, in the absence or presence of Aurantiochytrium mangrovei FCC1325 microalgae (lyophilized microalgae “ML”, or digested lyophilized microalgae “MLD”), at a dose of 1% or 5%. […]
# Briefly, Caco-2 cells were cultured and seeded onto 12-well inserts, as described in Example 1, and then let to differentiate for 16-21 days post-seeding before being used, with medium changes every two days. […] Caco-2 cells were incubated for 12, 24 or 48 hours before nutrient uptake was measured. […]
# as §6, with “Inserts were kept incubated at 37° C. during the uptake assay.” left out, “Sigma-Aldrich). […]” for “Sigma-Aldrich).”
compound,measurement,setting,value
Dextran Sulfate Sodium [DSS],length of the colon,"Ross 308 broilers [1]; 16-day old chickens, compared with group without DSS",significantly increased
same,visual observation of the colon mucosa,Ross 308 broilers [1]; compared with DSS- control group,"thinner, translucent, and more fragile"
same,flow of FITC-dextran through the gut barrier,Ross 308 broilers [2],significantly increased
"CC1=C[C@H]2O[C@@H]3[C@H](O)C[C@](C)([C@@]2(CO)[C@H](O)C1=O)[C@]31CO1 [DON, Deoxynivalenol]",effect of DON only on the TER,"Caco-2 cells [3]; DON 6.25-100 μM, more pronounced as concentration increased",induced a reduction of the TER
same,IC50,"Caco-2 cells [3]; IC50 of DON on TER, control without tested product, 48 h",11 µM
same,"% of inhibition by DON, Passive uptake (−Na)",Caco-2 cells [4]; 12 h,6.4%
same,"% of inhibition by DON, Total uptake (+Na)",Caco-2 cells [4]; 12 h,9.3%
same,"% of inhibition by DON, Passive uptake (−Na)",Caco-2 cells [4]; 24 h,22.2%
same,"% of inhibition by DON, Total uptake (+Na)",Caco-2 cells [4]; 24 h,29.4%
same,"% of inhibition by DON, Passive uptake (−Na)",Caco-2 cells [4]; 48 h,21.6%
same,"% of inhibition by DON, Total uptake (+Na)",Caco-2 cells [4]; 48 h,28.8%
same,"% of inhibition by DON, SGLT-1 mediated",[5]; 12 h,19.2%
same,"% of inhibition by DON, SGLT-1 mediated",[5]; 24 h,52.3%
same,"% of inhibition by DON, SGLT-1 mediated",[5]; 48 h,51.4%
same,effect of DON on active L-Lys uptake,"Caco-2 cells [6]; 48 h incubation, DON alone",stimulated
same,"% of inhibition by DON, Passive uptake (−Na)",Caco-2 cells [6]; 12 h,−6.1%
same,"% of inhibition by DON, Total uptake (+Na)",Caco-2 cells [6]; 12 h,−5.2%
same,"% of inhibition by DON, Active transport",Caco-2 cells [6]; 12 h,57.5%
same,"% of inhibition by DON, Passive uptake (−Na)",Caco-2 cells [6]; 24 h,−10.1%
same,"% of inhibition by DON, Total uptake (+Na)",Caco-2 cells [6]; 24 h,−5.2%
same,"% of inhibition by DON, Active transport",Caco-2 cells [6]; 24 h,44.2%
same,"% of inhibition by DON, Passive uptake (−Na)",Caco-2 cells [6]; 48 h,−6.6%
same,"% of inhibition by DON, Total uptake (+Na)",Caco-2 cells [6]; 48 h,−9.4%
same,"% of inhibition by DON, Active transport",Caco-2 cells [6]; 48 h,−102.3%
same,effect of DON on L-Met active uptake,Caco-2 cells [7]; 12 h incubation,stimulated
same,effect of DON on active L-Met uptake,"Caco-2 cells [7]; 48 h incubation, DON alone",stimulated
same,"% of inhibition by DON, Passive uptake (−Na)",Caco-2 cells [7]; 12 h,−2.2%
same,"% of inhibition by DON, Total uptake (+Na)",Caco-2 cells [7]; 12 h,−9.6%
same,"% of inhibition by DON, Active transport",Caco-2 cells [7]; 12 h,−256.0%
same,"% of inhibition by DON, Passive uptake (−Na)",Caco-2 cells [7]; 24 h,−4.9%
same,"% of inhibition by DON, Total uptake (+Na)",Caco-2 cells [7]; 24 h,−12.9%
same,"% of inhibition by DON, Passive uptake (−Na)",Caco-2 cells [7]; 48 h,1.8%
same,"% of inhibition by DON, Total uptake (+Na)",Caco-2 cells [7]; 48 h,−4.1%
same,"% of inhibition by DON, Active transport",Caco-2 cells [7]; 48 h,−102.4%
same,"% of inhibition by DON, Passive uptake (−Na)",Caco-2 cells [8]; 12 h,−9.5%
same,"% of inhibition by DON, Total uptake (+Na)",Caco-2 cells [8]; 12 h,−6.3%
same,"% of inhibition by DON, Active transport",Caco-2 cells [8]; 12 h,56.5%
same,"% of inhibition by DON, Passive uptake (−Na)",Caco-2 cells [8]; 24 h,−9.5%
same,"% of inhibition by DON, Total uptake (+Na)",Caco-2 cells [8]; 24 h,−6.3%
same,"% of inhibition by DON, Active transport",Caco-2 cells [8]; 24 h,56.5%
same,"% of inhibition by DON, Passive uptake (−Na)",Caco-2 cells [8]; 48 h,−16.9%
same,"% of inhibition by DON, Total uptake (+Na)",Caco-2 cells [8]; 48 h,−14.5%
same,"% of inhibition by DON, Active transport",Caco-2 cells [8]; 48 h,76.4%
same,effect of DON on intestinal nutrient uptake,Caco-2 cells [9],alters intestinal nutrient uptake
